Reference: patent publication US11370774B2, “Substituted benzofuran, benzopyrrole, benzothiophene, and structurally related complement inhibitors” (BioCryst Pharmaceuticals, Inc., priority 2018, dated 2022)

Molecular target: Factor D (Homo sapiens (Human), UniProt P00746)
Test: Factor D esterolytic assay (Z-Lys-SBzl substrate, DTNB, 405 nm)
Assay type: biochemical
Details: Z-Lys-SBzl 1.29 mM, pH 7.5, 10% DMSO, tested a minimum of three times, read-out: Measured Ki (IC50) Value for Compounds: IC50
Procedure, shortened: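 Thioester hydrolysis (Z-Lys-SBzl, 1.29 mM) by human Factor D ([…]) detected through DTNB color at 405 nm over 600 sec, minus 690 nm background. Buffer: 100 mM HEPES pH 7.5, 500 mM NaCl, 10% DMSO; optional room-temperature preincubation before substrate. IC50 derived from percent rate inhibition; at least three runs.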

Factor D, sequence (P00746 26-253): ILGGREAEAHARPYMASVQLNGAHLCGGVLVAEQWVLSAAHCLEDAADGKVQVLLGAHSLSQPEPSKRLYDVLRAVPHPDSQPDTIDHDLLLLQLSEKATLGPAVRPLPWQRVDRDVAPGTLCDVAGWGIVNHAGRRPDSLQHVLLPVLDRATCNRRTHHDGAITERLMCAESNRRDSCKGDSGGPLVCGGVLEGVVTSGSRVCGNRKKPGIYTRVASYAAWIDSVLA

| IC50 [nM] | SMILES |
| --- | --- |
| < 1000 | NCc1nccc(-c2cc(COc3cc(F)ccc3CC(=O)O)cc3cc(F)oc23)c1F [Compound 522c, 2-(2-((7-(2-(aminomethyl)-3-fluoropyridin-4-yl)-2-fluorobenzofuran-5-yl)methoxy)-4-fluorophenyl)acetic acid] |
| < 1000 | NCc1cc(-c2cc(COc3cc(F)ccc3CC(=O)O)cc3cc(F)oc23)ccn1 [Compound 523b, 2-(2-((7-(2-(aminomethyl)pyridin-4-yl)-2-fluorobenzofuran-5-yl)methoxy)-4-fluorophenyl)acetic acid] |
| < 1000 | Cc1ccc(CC(=O)O)c(OCc2cc(-c3cccc(CN)c3F)c3oc(F)cc3c2)c1 [Compound 524b, 2-(2-((7-(3-(aminomethyl)-2-fluorophenyl)-2-fluorobenzofuran-5-yl)methoxy)-4-methylphenyl)acetic acid] |
| < 1000 | Cc1ccc(CC(=O)O)c(OCc2cc(-c3ccnc(CN)c3F)c3oc(F)cc3c2)c1 [Compound 525c, 2-(2-((7-(2-(aminomethyl)-3-fluoropyridin-4-yl)-2-fluorobenzofuran-5-yl)methoxy)-4-methylphenyl)acetic acid] |
| < 1000 | Cc1ccc(CC(=O)O)c(OCc2cc(-c3ccnc(CN)c3)c3oc(F)cc3c2)c1 [Compound 526b, 2-(2-((7-(2-(aminomethyl)pyridin-4-yl)-2-fluorobenzofuran-5-yl)methoxy)-4-methylphenyl)acetic acid] |
| < 1000 | COc1cccc(CC(=O)O)c1OCc1cc(-c2ccnc(CN)c2F)c2occc2c1 [Compound 527b, 2-(2-((7-(2-(aminomethyl)-3-fluoropyridin-4-yl)benzofuran-5-yl)methoxy)-3-methoxyphenyl)acetic acid] |
| < 1000 | COCc1cc2cc(COc3ccc(F)cc3CC(=O)O)cc(-c3ccnc(CN)c3F)c2o1 [Compound 528d] |
| < 1000 | COCc1cc2cc(COc3ccc(F)cc3CC(=O)O)cc(-c3ccnc(CN)c3)c2o1 [Compound 529b, 2-(2-((7-(2-(aminomethyl)pyridin-4-yl)-2-(methoxymethyl)benzofuran-5-yl)methoxy)-5-fluorophenyl)acetic acid] |
| < 1000 | COCc1cc2cc(COc3cc(C(C)=O)ccc3CC(=O)O)cc(-c3ccnc(CN)c3F)c2o1 [Compound 530c, 2-(4-acetyl-2-((7-(2-(aminomethyl)-3-fluoropyridin-4-yl)-2-(methoxymethyl)benzofuran-5-yl)methoxy)phenyl)acetic acid] |
| < 1000 | NCc1nccc(-c2c(F)c(COc3ccccc3CC(=O)O)cc3ccoc23)c1F [Compound 531c, 2-(2-((7-(2-(aminomethyl)-3-fluoropyridin-4-yl)-6-fluorobenzofuran-5-yl)methoxy)phenyl)acetic acid] |
| < 1000 | NCc1cc(-c2cc(COc3ccccc3CC(=O)O)cc3c2ccn3C(F)(F)F)ccn1 [Compound 532d, 2-(2-((4-(2-(aminomethyl)pyridin-4-yl)-1-(trifluoromethyl)-1H-indol-6-yl)methoxy)phenyl)acetic acid] |
| < 1000 | NCc1nccc(-c2cc(COc3ccccc3CC(=O)O)cc3c2ccn3C(F)(F)F)c1F [Compound 533c, 2-(2-((4-(2-(aminomethyl)-3-fluoropyridin-4-yl)-1-(trifluoromethyl)-1H-indol-6-yl)methoxy)phenyl)acetic acid] |
